Test results from the OPERA property sets (Mansouri et al. 2018).

First: CCCCCCCCCCCC(=O)O
Second: CCCCCCCCCCCO
The boiling point of the first is higher: 299 °C for the first, 243 °C for the second.

First: Cc1ccccc1CO
Second: Cc1cn(C)c2ccccc12
The boiling point of the first is lower: 224 °C for the first, 258 °C for the second.

Compared with CCOC(=O)CCc1ccccc1, CCCc1ccccc1 is lower in boiling point: 247 °C for the first, 159 °C for the second.

Compared with N#Cc1ccc(OC(F)(F)F)cc1, C#CC(C)(O)c1ccccc1 (stereo not given) is higher in boiling point: 192 °C for the first, 218 °C for the second.

Compared with CC(=O)c1ccncc1, O=C(c1ccccc1)c1ccncc1 is higher in boiling point: 212 °C for the first, 315 °C for the second.

Compared with FC(F)(F)C(Cl)(Cl)Cl, FC(F)(F)C(F)(Cl)C(Cl)(Cl)C(F)(F)F (stereo not given) is higher in boiling point: 46.1 °C for the first, 98 °C for the second.

Compared with C[C@H](O)CCCO, CCOCCN is lower in boiling point: 202 °C for the first, 108 °C for the second.

First: CC1(C)CCCC(=O)C1
Second: C=CC1CCC1C=C (stereo not given)
The boiling point of the first is higher: 180 °C for the first, 112 °C for the second.

Going from Cc1ccc(Cl)cc1Cl to Cc1cc(C)c(O)c(C)c1C, the boiling point rises from 201 °C to 240 °C.

Compared with CCc1ccco1, ClC(Cl)C(Cl)(Cl)C(Cl)Cl is higher in boiling point: 92 °C for the first, 218 °C for the second.

Going from CCCCCCCCCCCC(=O)O to CCCCCCCCCCCO, the log10 vapour pressure (mmHg) rises from -4.8 to -2.53.

First: CC(C)(C)C(=O)C(Oc1ccc(Cl)cc1)n1cncn1 (stereo not given)
Second: Cc1ccc(Cl)cc1Cl
The log10 vapour pressure (mmHg) of the first is lower: -7.82 for the first, -0.339 for the second.

Compared with COC(=O)c1sccc1S(=O)(=O)NC(=O)Nc1nc(C)nc(OC)n1, O=C(O)c1ccccc1O is higher in log10 vapour pressure (mmHg): -9.89 for the first, -4.09 for the second.

Going from FC(F)(F)C(Cl)(Cl)Cl to CCCc1ccccc1, the log10 vapour pressure (mmHg) falls from 2.56 to 0.534.

Work on CCCC=O yielded a log10 vapour pressure (mmHg) of 2.05.

Compared with CCCCCCCCCCCC(=O)O, CCCCCCCCCCCO is lower in melting point: 43.2 °C for the first, 19 °C for the second.

First: CN(C)CCCN1c2ccccc2S(=O)c2ccc(Cl)cc21 (stereo not given)
Second: Cc1cn(C)c2ccccc12
The melting point of the first is lower: 115 °C for the first, 142 °C for the second.

Going from Cc1ccccc1CO to CCCc1ccccc1, the melting point falls from 38 °C to -99.5 °C.

Compared with C#CC(C)(O)c1ccccc1 (stereo not given), O=C(O)c1ccccc1O is higher in melting point: 52.3 °C for the first, 158 °C for the second.

Going from CCSCC(=O)O to CCCC=O, the melting point falls from -8.5 °C to -99 °C.

Compared with CCN(CC)CC(=O)Nc1c(C)cc(C)cc1C, Cc1cc(C)c(O)c(C)c1C is higher in melting point: 44 °C for the first, 80.5 °C for the second.

First: CC(=O)c1ccncc1
Second: O=C(c1ccccc1)c1ccncc1
The melting point of the first is lower: 16 °C for the first, 72 °C for the second.

Compared with Cc1c(F)c(F)c(C(=O)O)c(F)c1F, O=C(O)c1cccnc1C(=O)O is higher in melting point: 174 °C for the first, 228 °C for the second.

Going from CC(C)(C)C(=O)C(Oc1ccc(Cl)cc1)n1cncn1 (stereo not given) to Cc1ccc(Cl)cc1Cl, the melting point falls from 82 °C to -13.5 °C.

Compared with O=[N+]([O-])c1ccc2c(c1)CCN2, C=Cc1cccc([N+](=O)[O-])c1 is lower in melting point: 93 °C for the first, -10 °C for the second.

Going from Clc1cc(Cl)cc(C2(CC(Cl)(Cl)Cl)CO2)c1 (stereo not given) to FC(F)(F)C(Cl)(Cl)Cl, the melting point falls from 42.8 °C to 14.2 °C.

Compared with CCc1nc2ccccc2[nH]1, CCN(CC)C(=O)[C@@H]1C=C2c3cccc4[nH]c(Br)c(c34)C[C@H]2N(C)C1 is lower in melting point: 175 °C for the first, 124 °C for the second.

First: COC(=O)c1sccc1S(=O)(=O)NC(=O)Nc1nc(C)nc(OC)n1
Second: CC(=O)O[C@]1(C(C)=O)CC[C@H]2[C@@H]3C[C@H](C)C4=CC(=O)CC[C@]4(C)[C@H]3CC[C@@]21C
The melting point of the first is lower: 176 °C for the first, 206 °C for the second.

Compared with OC1(c2ccc(Cl)c(C(F)(F)F)c2)CCN(CCCC(c2ccc(F)cc2)c2ccc(F)cc2)CC1, CC(C)(C)NC[C@H](O)COc1nsnc1N1CCOCC1 is higher in melting point: 106 °C for the first, 202 °C for the second.

Going from CC(C)(C)OC(=O)C(Cl)(Cl)Cl to FC(F)(F)C(F)(Cl)C(Cl)(Cl)C(F)(F)F (stereo not given), the melting point falls from 25.5 °C to 4 °C.

With Cl.N=C(N)N the melting point was 182 °C.

Compared with CC(=O)c1ccncc1, CCCc1ccccc1 is higher in log10 Henry constant (atm·m³/mol): -7.2 for the first, -1.98 for the second.

Molecule CCCC=O has a log10 Henry constant (atm·m³/mol) of -3.94.

First: CC(C)(C)C(=O)C(Oc1ccc(Cl)cc1)n1cncn1 (stereo not given)
Second: COC(=O)c1sccc1S(=O)(=O)NC(=O)Nc1nc(C)nc(OC)n1
The log10 Koc (L/kg) of the first is higher: 2.71 for the first, 1.45 for the second.

First: Clc1cc(Cl)cc(C2(CC(Cl)(Cl)Cl)CO2)c1 (stereo not given)
Second: CCCc1ccccc1
The log10 Koc (L/kg) of the first is higher: 3.75 for the first, 2.87 for the second.

In the case of O=C1/C(=C2\Nc3ccccc3C2=O)Nc2ccccc21, the ready biodegradability is reported as “not readily biodegradable”.
In the case of O=C(O)c1cccnc1C(=O)O, the ready biodegradability is reported as “readily biodegradable”.
For CCCc1ccccc1, the ready biodegradability was “readily biodegradable”.
In the case of Cc1ccc(Cl)cc1Cl, the ready biodegradability is reported as “not readily biodegradable”.
With C=Cc1cccc([N+](=O)[O-])c1 the ready biodegradability was “not readily biodegradable”.
With O=C(O)c1ccccc1O the ready biodegradability was “readily biodegradable”.
In the case of CCCCCCCCCCCO, the ready biodegradability is reported as “readily biodegradable”.
In the case of CCCC=O, the ready biodegradability is reported as “readily biodegradable”.
For CCCCCCC(O)CCCCCCCCCCC(=O)O (stereo not given), the ready biodegradability was “readily biodegradable”.

Compared with CCCc1ccccc1, O=C(O)c1ccccc1O is higher in log10 Koa: 4.09 for the first, 7.44 for the second.

With CCCC=O the log10 Koa was 3.39.

Work on CCCc1ccccc1 yielded a log10 biodegradation half-life (days) of 0.602.
